These results are taken from patent US20080299109A1, “MECHANISM OF ASTRICYTE-NEURON SIGNALING” (Korea Institute of Science and Technology, priority 2007, published 2008).

The test system of the assay is cultured wild-type mouse astrocytes. The assay is described as follows: Fura-2 intracellular Ca2+ imaging in cultured wild-type astrocytes. The format is cell-based. The conditions noted are these: 30 nM thrombin. The procedure: Cultured astrocytes were prepared from P0-P3 postnatal mice obtained from KIST SPF. The cerebral cortex was dissected free of adherent meninges, minced, and dissociated into single cell suspension by trituration through a Pasteur pipette. All procedures involving the use of animals were reviewed and approved by the Emory University IACUC. Dissociated cells were plated onto either 12 mm glass coverslips or 6 well plates coated with 0.1 mg/ml poly-D-lysine. Cells were grown in a DMEM media (Gibco, cat# 11960-044) supplemented with 25 mM glucose, 10% heat-inactivated horse serum, and 10% heat-inactivated fetal bovine serum, 2 mM glutamine, and 1000 units/ml penicillin-streptomycin. Cultures were maintained at 37° C. in a humidified 5% CO2-containing atmosphere. […] In some experiments, the culture media was replaced 24 hours after plating with DMEM with all added components except glutamine, and cultures were maintained for 4 days before experimentation in glutamine-free media.
Cultured astrocytes were incubated with 5 µM Fura2-AM in […] pluronic acid (Molecular Probes) for 30 min at room temperature, and subsequently transferred to a microscope stage for imaging. The external solution contained 150 mM NaCl, 10 mM HEPES, 3 mM KCl, 2 mM CaCl2, 2 mM MgCl2, and 5.5 mM glucose, and the pH was adjusted to pH 7.3 and osmolarity to 325 mOsm. Intensity images of a 510 nm wavelength were taken at 340 nm and 380 nm excitation wavelengths using either a Micromax Camera (Princeton) or an intensified video camera (PTI), and the two resulting images were used for ratio calculations using Axon Imaging Workbench version 2.2.1.

Take thrombin: the “change in Fura-2 ratio” value (without or after pretreatment with 1 μM BMS200261) is listed as 150.9±17.4%. Besides, the “level of astrocytic intracellular Ca^2+ (Fura-2 fluorescence ratio)” value (30 μM TFLLR, 10 μM bradykinin, 50 μM 2-methyl-thio-ATP, 10 μM ATP) was “robust increase”.
